Experimental data: patent publication US20150299188A1, “HETEROCYCLIC COMPOUND” (priority 2012, published 2015)

System: FLAP (5-lipoxygenase activating protein)
Test: In vitro binding test: displacement of [3H]-7-chloro-3-(5-((3-fluoropyridin-2-yl)methoxy)-2-methylphenyl)-3,4-dihydroquinazolin-2(1H)-one from Sf9 microsome fractions
Design: species or system human and mouse
Conditions: Sf9 microsome fractions expressing FLAP; 100% = radioligand binding with 10 μM sodium 3-(3-(tert-butylsulfanyl)-1-(4-chlorobenzyl)-5-isopropyl-1H-indol-2-yl)-2,2-dimethylpropanoate, 0% = DMSO; test compound concentration not given
Procedure: As an assay buffer, 100 mM Tris-HCl, pH 7.5, 140 mM NaCl, 2 mM EDTA, 0.5 mM dithiothreitol, 5% glycerol, 0.05% Tween20 was used. Sf9 microsome fractions expressing human and mouse FLAPs were dispensed by 50 μL to a 96-well plate at 2 μg/mL. Furthermore, a test compound (25 μL) diluted 4-fold of the final concentration with the assay buffer was added and mixed therewith, and the mixture was incubated at room temperature for 10 min. Furthermore, 120 nM [^3H]-7-chloro-3-(5-((3-fluoropyridin-2-yl)methoxy)-2-methylphenyl)-3,4-dihydroquinazolin-2(1H)-one was added by 25 μL, and mixed therewith, and the mixture was incubated at room temperature for 60 min. Thereafter, the cells were transferred to a 96-well GF/B Unifilter plate with a FilterMate cell harvester, and washed 3 times with a wash buffer (100 mM Tris-HCl pH 7.5, 0.05% Tween20, 200 μL) cooled to 4° C. The GF/B Unifilter plate was dried at 37° C., Microscint 0 was added and measured by TopCount NXT (PerkinElmer). As for the inhibitory activity, the inhibitory rate was calculated wherein the [^3H]-7-chloro-3-(5-((3-fluoropyridin-2-yl)methoxy)-2-methylphenyl)-3,4-dihydroquinazolin-2(1H)-one binding amount in the presence of 10 μM sodium 3-(3-(tert-butylsulfanyl)-1-(4-chlorobenzyl)-5-isopropyl-1H-indol-2-yl)-2,2-dimethylpropanoate was 100%, and the [^3H]-7-chloro-3-(5-((3-fluoropyridin-2-yl)methoxy)-2-methylphenyl)-3,4-dihydroquinazolin-2(1H)-one binding amount in the presence of DMSO was 0%.

O=C1Nc2c(Cl)cnc(Cl)c2CN1c1cc2c(cc1Cl)CCC(c1ncccc1F)O2 (stereo not shown) [Example 53, 5,8-dichloro-3-(6-chloro-2-(3-fluoropyridin-2-yl)-3,4-dihydro-2H-chromen-7-yl)-3,4-dihydropyrido[4,3-d]pyrimidin-2(1H)-one]
inhibitory rate (%): 103%

COc1cncc2c1CN(c1cc3c(cc1C)CCC(c1ncccc1F)O3)C(=O)N2 (stereo not shown) [Example 23, 3-(2-(3-fluoropyridin-2-yl)-6-methyl-3,4-dihydro-2H-chromen-7-yl)-5-methoxy-3,4-dihydropyrido[3,4-d]pyrimidin-2(1H)-one]
inhibitory rate (%): 92%

O=C1Nc2c(-c3ccoc3)ncc(Cl)c2CN1c1cc2c(cc1Cl)CCC(c1ncccc1F)O2 (stereo not shown) [Example 155, 5-chloro-3-(6-chloro-2-(3-fluoropyridin-2-yl)-3,4-dihydro-2H-chromen-7-yl)-8-(3-furyl)-3,4-dihydropyrido[3,4-d]pyrimidin-2(1H)-one]
inhibitory rate (%): 101%

COC(=O)c1ccc2c(=O)n(-c3cc(OCc4c(F)cccc4F)ccc3C)c(=O)[nH]c2c1 [Example 335, methyl 3-(5-((2,6-difluorobenzyl)oxy)-2-methylphenyl)-2,4-dioxo-1,2,3,4-tetrahydroquinazoline-7-carboxylate]
inhibitory rate (%): 103%

Cc1ccc(OCc2c(F)cccc2F)cc1N1Cc2cc(CO)ccc2NC1=O [Example 186, 3-(5-((2,6-difluorobenzyl)oxy)-2-methylphenyl)-6-(hydroxymethyl)-3,4-dihydroquinazolin-2(1H)-one]
inhibitory rate (%): 62%

Cc1ccc(OCc2ncccc2Cl)cc1N1Cc2ccccc2NC1=O [Example 187, 3-(5-((3-chloropyridin-2-yl)methoxy)-2-methylphenyl)-3,4-dihydroquinazolin-2(1H)-one]
inhibitory rate (%): 103%

Cc1n[nH]c(-c2cc3c(c(C4CC4)n2)CN(c2cc4c(cc2Cl)CCC(c2ncccc2F)O4)C(=O)N3)n1 (stereo not shown) [Example 119, 3-(6-chloro-2-(3-fluoropyridin-2-yl)-3,4-dihydro-2H-chromen-7-yl)-5-cyclopropyl-7-(3-methyl-1H-1,2,4-triazol-5-yl)-3,4-dihydropyrido[4,3-d]pyrimidin-2(1H)-one]
inhibitory rate (%): 107%

Cc1ccc(OCc2c(F)cccc2F)cc1N1Cc2c(CO)cccc2NC1=O [Example 195, 3-(5-((2,6-difluorobenzyl)oxy)-2-methylphenyl)-5-(hydroxymethyl)-3,4-dihydroquinazolin-2(1H)-one]
inhibitory rate (%): 97%

Cc1cc2c(cc1N1Cc3c(cc(-c4c(C)noc4C)nc3C3CC3)NC1=O)OC(c1ncccc1F)CC2 (stereo not shown) [Example 151, 5-cyclopropyl-7-(3,5-dimethyl-1,2-oxazol-4-yl)-3-(2-(3-fluoropyridin-2-yl)-6-methyl-3,4-dihydro-2H-chromen-7-yl)-3,4-dihydropyrido[4,3-d]pyrimidin-2(1H)-one]
inhibitory rate (%): 90%

Cc1ccc(OCc2c(F)cccc2F)cc1N1Cc2ccc(CN)cc2NC1=O [Example 206, 7-(aminomethyl)-3-(5-((2,6-difluorobenzyl)oxy)-2-methylphenyl)-3,4-dihydroquinazolin-2(1H)-one]
inhibitory rate (%): 81%

O=C(c1cc2c(c(C3CC3)n1)CN(c1cc3c(cc1Cl)CCC(c1ncccc1F)O3)C(=O)N2)N1CC(O)C1 (stereo not shown) [Example 112, 3-(6-chloro-2-(3-fluoropyridin-2-yl)-3,4-dihydro-2H-chromen-7-yl)-5-cyclopropyl-7-((3-hydroxyazetidin-1-yl)carbonyl)-3,4-dihydropyrido[4,3-d]pyrimidin-2(1H)-one]
inhibitory rate (%): 103%

Cc1ccc(OCc2ncccc2F)cc1N1Cc2c(cc[nH]c2=O)NC1=O [Example 310, 3-(5-((3-fluoropyridin-2-yl)methoxy)-2-methylphenyl)-4,6-dihydropyrido[4,3-d]pyrimidine-2,5(1H,3H)-dione]
inhibitory rate (%): 95%

O=c1[nH]c2ccccc2c(=O)n1-c1cc(OCc2ncccc2F)ccc1Cl [Example 344, 3-(2-chloro-5-((3-fluoropyridin-2-yl)methoxy)phenyl)quinazoline-2,4(1H,3H)-dione]
inhibitory rate (%): 114%

O=C1Nc2cc(N3CCCS3(=O)=O)nc(C3CC3)c2CN1c1cc2c(cc1Cl)CCC(c1ncccc1F)O2 (stereo not shown) [Example 106, 3-(6-chloro-2-(3-fluoropyridin-2-yl)-3,4-dihydro-2H-chromen-7-yl)-5-cyclopropyl-7-(1,1-dioxido-1,2-thiazolidin-2-yl)-3,4-dihydropyrido[4,3-d]pyrimidin-2(1H)-one]
inhibitory rate (%): 94%

CC(C)(O)c1ccc2c(c1)NC(=O)N(c1cc(OCc3c(F)cccc3F)ccc1C(F)(F)F)C2 [Example 238, 3-(5-((2,6-difluorobenzyl)oxy)-2-(trifluoromethyl)phenyl)-7-(2-hydroxypropan-2-yl)-3,4-dihydroquinazolin-2(1H)-one]
inhibitory rate (%): 84%

Cc1nc(COc2ccc(C)c(N3Cc4ccc(C(C)(C)O)cc4NC3=O)c2)cs1 [Example 226, 7-(2-hydroxypropan-2-yl)-3-(2-methyl-5-((2-methyl-1,3-thiazol-4-yl)methoxy)phenyl)-3,4-dihydroquinazolin-2(1H)-one]
inhibitory rate (%): 52%

Cc1cc2c(cc1N1Cc3c(cc(/C=C/C(=O)O)nc3C3CC3)NC1=O)OC(c1ncccc1F)CC2 (stereo not shown) [Example 91, (2E)-3-(5-cyclopropyl-3-(2-(3-fluoropyridin-2-yl)-6-methyl-3,4-dihydro-2H-chromen-7-yl)-2-oxo-1,2,3,4-tetrahydropyrido[4,3-d]pyrimidin-7-yl)acrylic acid]
inhibitory rate (%): 109%

Cc1ccc(OCc2ncccc2F)cc1N1Cc2c(ccnc2C2CC2)NC1=O [Example 320, 5-cyclopropyl-3-(5-((3-fluoropyridin-2-yl)methoxy)-2-methylphenyl)-3,4-dihydropyrido[4,3-d]pyrimidin-2(1H)-one]
inhibitory rate (%): 101%

Cc1cc2c(cc1N1Cc3c(C4CC4)ccnc3NC1=O)OC(c1ncccc1F)CC2 (stereo not shown) [Example 50, 5-cyclopropyl-3-(2-(3-fluoropyridin-2-yl)-6-methyl-3,4-dihydro-2H-chromen-7-yl)-3,4-dihydropyrido[2,3-d]pyrimidin-2(1H)-one]
inhibitory rate (%): 67%

Cn1nccc1-c1nccc2c1CN(c1cc3c(cc1Cl)CCC(c1ncccc1F)O3)C(=O)N2 (stereo not shown) [Example 60, 3-(6-chloro-2-(3-fluoropyridin-2-yl)-3,4-dihydro-2H-chromen-7-yl)-5-(1-methyl-1H-pyrazol-5-yl)-3,4-dihydropyrido[4,3-d]pyrimidin-2(1H)-one]
inhibitory rate (%): 113%

CC(C)(O)c1ccc2c(c1)NC(=O)N(c1cc(OCc3c(F)cccc3F)ccc1Cl)C2 [Example 222, 3-(2-chloro-5-((2,6-difluorobenzyl)oxy)phenyl)-7-(2-hydroxypropan-2-yl)-3,4-dihydroquinazolin-2(1H)-one]
inhibitory rate (%): 103%

Cc1ncc(Cl)c2c1NC(=O)N(c1cc3c(cc1Cl)CC[C@H](c1ncccc1F)O3)C2 [Example 8, 5-chloro-3-((2R)-6-chloro-2-(3-fluoropyridin-2-yl)-3,4-dihydro-2H-chromen-7-yl)-8-methyl-3,4-dihydropyrido[3,4-d]pyrimidin-2(1H)-one]
inhibitory rate (%): 103%

Cc1ccc(OC(C)c2ncccc2F)cc1N1Cc2ccccc2NC1=O (stereo not shown) [Example 215, 3-(5-(1-(3-fluoropyridin-2-yl)ethoxy)-2-methylphenyl)-3,4-dihydroquinazolin-2(1H)-one]
inhibitory rate (%): 79%

Cc1cc2c(cc1N1Cc3c(Cl)cnc(N4CCCC4)c3NC1=O)OC(c1ncccc1F)CC2 (stereo not shown) [Example 158, 5-chloro-3-(2-(3-fluoropyridin-2-yl)-6-methyl-3,4-dihydro-2H-chromen-7-yl)-8-(pyrrolidin-1-yl)-3,4-dihydropyrido[3,4-d]pyrimidin-2(1H)-one]
inhibitory rate (%): 99%

COC(=O)c1ccc2c(c1)NC(=O)N(c1cc(OCc3nc(C)cs3)ccc1C)C2 [Example 249, methyl 3-(2-methyl-5-((4-methyl-1,3-thiazol-2-yl)methoxy)phenyl)-2-oxo-1,2,3,4-tetrahydroquinazoline-7-carboxylate]
inhibitory rate (%): 90%

COCCn1c(=O)n(-c2cc3c(cc2C)CCC(c2ncccc2F)O3)c(=O)c2ccccc21 (stereo not shown) [Example 328, 3-(2-(3-fluoropyridin-2-yl)-6-methyl-3,4-dihydro-2H-chromen-7-yl)-1-(2-methoxyethyl)quinazoline-2,4(1H,3H)-dione]
inhibitory rate (%): 111%

Cc1cc2c(cc1N1Cc3c(ccnc3C3CC3)NC1=O)OC(c1ncccc1F)CC2 (stereo not shown) [Example 25, 5-cyclopropyl-3-(2-(3-fluoropyridin-2-yl)-6-methyl-3,4-dihydro-2H-chromen-7-yl)-3,4-dihydropyrido[4,3-d]pyrimidin-2(1H)-one]
inhibitory rate (%): 99%

Cn1cc(-c2ncc(Cl)c3c2NC(=O)N(c2cc4c(cc2Cl)CCC(c2ncccc2F)O4)C3)cn1 (stereo not shown) [Example 102, 5-chloro-3-(6-chloro-2-(3-fluoropyridin-2-yl)-3,4-dihydro-2H-chromen-7-yl)-8-(1-methyl-1H-pyrazol-4-yl)-3,4-dihydropyrido[3,4-d]pyrimidin-2(1H)-one]
inhibitory rate (%): 101%
